Assay results published in ChEMBL document CHEMBL1156712, “CNS depressant and anticonvulsant activities of some novel 3-[5-substituted 1,3,4-thiadiazole-2-yl]-2-styryl quinazoline-4(3H)-ones” (Eur J Med Chem, 2008).
Active and inactive are the calls of the source. The rule behind the calls is not given here.

Legend:
Mus musculus [1] = test: Anticonvulsant activity in mouse at 300 mg/kg, ip after 0.5 hrs by MES test; assay type: functional, organism-based; design: dose 300 mg/kg
Mus musculus [2] = test: Anticonvulsant activity in mouse at 300 mg/kg, ip after 4 hrs by MES test; assay type: functional, organism-based; design: dose 300 mg/kg
Mus musculus [3] = test: Anticonvulsant activity in mouse at 300 mg/kg, ip after 0.5 hrs by scPTZ test; assay type: functional, organism-based; design: dose 300 mg/kg
Mus musculus [4] = test: Anticonvulsant activity in mouse at 300 mg/kg, ip after 4 hrs by scPTZ test; assay type: functional, organism-based; design: dose 300 mg/kg
Rattus norvegicus = test: Central nervous system depressant activity in Wistar rat assessed as immobility time at 100 mg/kg, po after 1 hr by forced swim pool test; assay type: functional
Mus musculus [5] = test: Neurotoxicity in mouse assessed as minimal motor impairment at 300 mg/kg, ip after 0.5 hrs by rotarod test; assay type: toxicity, organism-based; design: dose 300 mg/kg, route intraperitoneal; conditions: in vivo
Mus musculus [6] = test: Neurotoxicity in mouse assessed as minimal motor impairment at 300 mg/kg, ip after 4 hrs by rotarod test; assay type: toxicity, organism-based; design: dose 300 mg/kg, route intraperitoneal; conditions: in vivo
Mus musculus [7] = test: Neurotoxicity in ip dosed mouse assessed as minimal motor impairment after 0.5 hrs by rotarod test; assay type: toxicity, organism-based; conditions: in vivo
Mus musculus [8] = test: Anticonvulsant activity in ip dosed mouse after 0.5 hrs by scPTZ test; assay type: functional
Mus musculus [9] = test: Anticonvulsant activity in ip dosed mouse after 0.5 hrs by MES test; assay type: functional
Mus musculus [10] = test: Anticonvulsant activity in ip dosed mouse after 4 hrs by MES test; assay type: functional
Mus musculus [11] = test: Anticonvulsant activity in ip dosed mouse after 4 hrs by scPTZ test; assay type: functional
Mus musculus [12] = test: Neurotoxicity in ip dosed mouse assessed as minimal motor impairment after 4 hrs by rotarod test; assay type: toxicity, organism-based; conditions: in vivo
Mus musculus [13] = test: Toxicity in mouse at 300 mg/kg, ip after 4 hrs; assay type: organism-based; design: dose 300 mg/kg, route intraperitoneal; conditions: in vivo

| SMILES | Activity (Mus musculus [1]) | Activity (Mus musculus [2]) | Activity (Mus musculus [3]) | Activity (Mus musculus [4]) | Time (Rattus norvegicus) [s] | Activity (Mus musculus [5]) | Activity (Mus musculus [6]) | Activity (Mus musculus [7]) [mg/kg] | Activity (Mus musculus [8]) [mg/kg] | Activity (Mus musculus [9]) [mg/kg] | Active dose (Mus musculus [10]) [mg/kg] | Activity (Mus musculus [11]) [mg/kg] | Activity (Mus musculus [12]) [mg/kg] | Activity (Mus musculus [13]) |
| --- | --- | --- | --- | --- | --- | --- | --- | --- | --- | --- | --- | --- | --- | --- |
| O=c1c2ccccc2nc(/C=C/c2ccc(Cl)cc2)n1-c1nnc(/C=C/c2ccccc2)s1 | inactive | inactive | inactive | inactive | 73.83 | Non-toxic | Non-toxic |  |  |  |  |  |  |  |
| Cc1ccc(-c2nnc(-n3c(/C=C/c4ccncc4)nc4ccccc4c3=O)s2)cc1 | inactive | inactive | inactive | inactive | 131.51 |  | Non-toxic | 100 |  |  |  |  |  |  |
| CCCC(CCC)C(=O)[O-].[Na+] [VALPROATE SODIUM] | inactive | inactive |  | inactive |  | Non-toxic | Non-toxic |  | 300 |  |  |  |  |  |
| Cc1ccc(-c2nnc(-n3c(/C=C/c4cccc(Cl)c4)nc4ccccc4c3=O)s2)cc1 | inactive | inactive | inactive | inactive | 100.76 | Non-toxic | Non-toxic |  |  |  |  |  |  |  |
| COc1ccc(-c2nnc(-n3c(/C=C/c4cccc(Cl)c4)nc4ccccc4c3=O)s2)cc1 | inactive | inactive | inactive | inactive | 163.21 | Non-toxic | Non-toxic |  |  |  |  |  |  |  |
| O=c1c2ccccc2nc(/C=C/c2ccncc2)n1-c1nnc(/C=C/c2ccccc2)s1 | inactive | inactive | inactive | inactive | 114.42 | Non-toxic | Non-toxic |  |  |  |  |  |  |  |
| O=c1c2ccccc2nc(/C=C/c2cccc(Cl)c2)n1-c1nnc(-c2ccc(Cl)cc2)s1 | inactive | inactive | inactive | inactive | 163.75 | Non-toxic | Non-toxic |  |  |  |  |  |  |  |
| NC(=O)N1c2ccccc2C=Cc2ccccc21 [CARBAMAZEPINE] |  |  |  |  |  |  |  | 100 | 100 | 30 | 100 | 300 | 100 |  |
| O=c1c2ccccc2nc(/C=C/c2ccc(Cl)cc2)n1-c1nnc(-c2ccccc2)s1 |  |  |  |  | 103.26 | Non-toxic | Non-toxic |  | 300 | 100 | 300 | 300 |  | Toxic |
| CCC1(C)CC(=O)NC1=O (stereo not given) [ETHOSUXIMIDE] | inactive | inactive |  | inactive |  | Non-toxic | Non-toxic |  | 300 |  |  |  |  |  |
| O=c1c2ccccc2nc(/C=C/c2ccc(Cl)cc2)n1-c1nnc(-c2ccc(Cl)cc2)s1 | inactive | inactive | inactive | inactive | 117.93 |  | Non-toxic | 300 |  |  |  |  |  |  |
